“And” between values parts separate entries of the source, which are not always exact repeats. Identical values can stand only once. Counter-ions that a name gives are not always drawn. Each block holds one compound with its values, some of them ahead of it.
Key:
[1] = format: physicochemical
Procedure: (§1) Form I was characterized by pKa, LogP, LogPion and LogD determination and prediction, XRPD before and after storage at 40° C./75% RH for 4 weeks, PLM, DSC and TGA, ^1HNMR, solubility in water with pH measurement, HPLC purity before and after storage at 40° C./75% RH for 4 weeks, water content, GVS with XRPD and purity analysis after measurement, and VT-XRPD.
LogP, LogPion and LogD values were measured by using different ratios of 0.1 5M KCl(Aq) to 1-octanol, with refinement of a multiset of the data. The measured LogP, 3.96, is in good agreement with the predicted values.

[2] = Procedure: The suspension was then equilibrated at 25° C. for 24 hours followed by a pH check and filtration through a glass fibre C 96 well plate. […] HPLC using a generic 5 minute method was used to quantify the amount of sample in solution with reference to a standard dissolved in DMSO at 0.1 mg/ml. Various volumes of the standard, diluted and undiluted tests were injected. […] If sufficient solid remained in the filter plate the XRPD was normally checked for phase changes, hydrate formation, amorphization, crystallization and other changes.
[3] = Storage at 40° C./75% RH (XRPD, HPLC purity, colour); format: physicochemical
[4] = GVS (gravimetric vapour sorption), single cycle; format: physicochemical
Procedure: as §1
This weight increase was not associated with any significant hysteresis between the adsorption and desorption cycles.

[5] = format: physicochemical; remark: listed apart in the source
Procedure: as §1
As expected from the predicted values, the compound is suitable for a mono salt screen and should form strong stable salts.

rats [6] = assay: Visceromotor response to colorectal distension, acetic acid-induced colonic hypersensitivity; format: in vivo, rat; conditions: for Visceromotor response (number of abdominal contractions) to colorectal distension vs vehicle: all doses tested i.p. (ondansetron 1, 5, 10; nisoxetine 3, 10, 30 mg/kg)
Procedure: A 10 min recovery was allowed between distensions.
Adult male rats were used in the study.
Ten minute recovery periods were allowed following each distension.
Statistical significance of the treatment groups was assessed using one-way ANOVA followed by Tukey post-test. […] (*) p<0.05, (**) p<0.01, (***) p<0.001

ferrets = assay: Cisplatin-induced emesis in the ferret; format: in vivo, Mustela putario furo
Procedure: The ability of MCI-225 to reduce retching and vomiting in an accepted model of cytotoxin-induced emesis in the ferret was assessed. Specifically, the experiments described herein investigated the effect of MCI-225 on retching and vomiting induced by cisplatin. Ondansetron was used as a positive control in the model, in view of its known antiemetic activity. Adult male ferrets (Mustela putario furo) weighing 1200-1880 g were purchased from Triple F Farms (Sayre, Pa.) and housed in individual cages at standardized conditions (12:12 h light/dark cycle and 21-23° C.). Prior to the experiments, the ferrets were allowed a 7-10 day acclimatization period to the animal facility. The ferrets were fed a carnivore diet with free access to food and water throughout the course of the study. The use of the ferret model of emesis and the drug treatment were preapproved in accordance with facility standards. A cisplatin solution was prepared by adding preheated (70° C.) saline to cisplatin powder (Sigma-Aldrich Co.) and stirring or sonicating at 40° C. until dissolved. Following administration of the cisplatin and either MCI-225, ondansetron or vehicle alone, the occurrence of retching and vomiting was monitored for a period of 6 hours. Retching was defined as the number of forceful rhythmic contractions of the abdomen occurring with the animal in characteristic posture, but not resulting in the expulsion of upper gastrointestinal tract contents (Watson et al., British Journal of Pharmacology, 115(1): 84-94 (1994)). Vomiting was defined as the forceful oral expulsion of upper gastrointestinal contents. The latency of the retching or vomiting response and the number of episodes were recorded for each animal and summarized for each experimental group (Wright et al., Infect. Immun., 68(4): 2386-9 (2000)). Following one hour of acclimation to the observation cage, ferrets received an intraperitoneal (i.p.) injection of cisplatin (5 mg/kg in 5 mL) followed in about 2 minutes by i.p. injection of a single dose of MCI-225 or ondansetron (Rudd and Naylor, Eur. J. Pharmacol., 322: 79-82 (1997)). Dose-response effects of MCI-225 dosed at 1, 10 and 30 mg/kg i.p. in a 0.5 mL/kg solution or ondansetron dosed at 5 and 10 mg/kg i.p. in a 0.5 mL/kg solution were studied. Each animal received a single-dose drug treatment. In addition, three animals received an initial dose (30 mg/kg i.p.) and a second MCI-225 injection (30 mg/kg i.p.) 180 minutes following the initial dose. […] All groups were randomized.

rats [7] = assay: Small Intestinal Transit Rodent Model (charcoal meal); format: in vivo, rat; conditions: for Small intestinal transit, Mean (% of total small intestinal length): 15-min test period
Procedure: Following an overnight fast, rats were brought to the laboratory in their home cages and received an i.p. injection of one of the following: […] Control rats received no treatment. The treated rats were placed back in the home cages and after 30 min, were fed a 2 mL charcoal meal via an oral gavage. Small intestinal transit was measured following 15 min test-period. Each rat was placed briefly in a glass chamber with IsoFlo for anesthesia and sacrificed. The stomach and the small intestine were removed and the total length of the small intestine was measured. Transit was then measured as the distance that the charcoal meal had traveled along the small intestine and expressed as % of the total length. Animals were randomly assigned to experimental groups and experiments were performed as illustrated in Table 3. Ondansetron was supplied from APIN Chemicals LTD. […] MCI-225 was provided by Mitsubishi Pharma Corp. All drugs were dissolved in a vehicle of 100% propylene glycol (1,2-Propanediol) by sonicating for 10 min. Propylene glycol was obtained from Sigma Chemical Co. Ondansetron, a 5-HT3-receptor antagonist was dosed i.p. at 1, 5, and 10 mg/kg. […] All doses were delivered in a final volume of 200 μL. Animals in the vehicle control group received 200 μL of 100% Propylene glycol and animals in the normal control group were untreated. Small intestinal transit in rats was investigated by the passage of a charcoal meal along the small intestine during a defined time period (15-min). The animals were deprived of food for 12-16 hrs prior to the experiments. Rats were given a charcoal meal (a mixture of charcoal, gum arabic, and distilled water) as a 2 mL oral gavage and were sacrificed after a 15-min test period. The distance traveled by the charcoal meal was quantified as a percent of the small intestinal length, using the following equation: Transit (%)=cm traveled by meal/cm total small intestinal length×100 […] Statistical analysis was performed to determine mean, standard error to the mean and standard deviation for each group (See Table 3). Differences between individual dose groups within treatments and comparisons between drug-treated and vehicle-treated groups were determined using an unpaired t test considering that when % is used as a relative unit, t-statistic is relevant. In all cases p<0.05 was considered statistically significant.

rats [8] = assay: Water avoidance stress (WAS) model of increased colonic transit, fecal pellet output; format: in vivo, rat; conditions: for WAS-induced fecal pellet output in 1 hour: all doses tested i.p. (MCI-225, nisoxetine 3, 10, 30; ondansetron 1, 5, 10 mg/kg)
Procedure: Ondansetron (5-HT3 receptor antagonist), nisoxetine (NARI) and a combination of ondansetron and nisoxetine were used as comparison compounds. The model provides a method of evaluating the effectiveness of a compound in a specific patient group of IBS sufferers where stress induced colonic motility is considered a significant contributing factor.
Fecal pellet output was measured by counting the total number of fecal pellets produced during 1 hour of WAS.
All rats underwent sham stress (I-hour in stress chamber without water) for 2-4 consecutive days before undergoing WAS (sham was performed until rats produced 0-1 pellet per hour for 2 consecutive days). At the end of the 1-hour stress period, the fecal pellets were counted and recorded.
WAS causes an acceleration of colonic transit, which can be quantified by counting the number of fecal pellets, produced during the stress procedure. Rats were placed for 1-hour into a stress chamber onto a raised platform 7.5 cm×7.5 cm×9 cm (L×W×H) in the center of a stress chamber filled with room temperature water 8 cm in depth.
Control drugs for this study were ondansetron and nisoxetine. Ondansetron was supplied from APIN Chemicals LTD. Nisoxetine was supplied by Tocris. […] All drugs and the vehicle were administered as an i.p. injection in a volume of 0.2 mL.
Statistical significance was assessed using one-way ANOVA followed by Tukey post-test. Statistical differences were compared between the WAS groups and the sham stress group and was considered significant if p<0.05. (*) p<0.05, (**) p<0.01, (***) p<0.001

[9] = 30 mg/kg b.i.d, i.p., 180-min interval

LogP [1]: 3.96
LogPion [1]: 1.41
LogD ([1]; pH 7.4): 2.72
Aqueous solubility [2]: 2100 µg/mL
Aqueous solubility, equivalent as the free base [2]: 1700 µg/mL
pH after solubility equilibration [2]: 6.33
Appearance of material surface after storage ([3]; 4 weeks at 40° C./75% RH, ambient light): gone yellow
HPLC purity after storage ([3]; 4 weeks at 40° C./75% RH, ambient light, initial purity 100%): 99.0%
XRPD pattern after storage ([3]; 40° C./75% RH, four weeks): unchanged
GVS total weight increase ([4]; between 0 and 90% RH): 5.0%
GVS weight increase ([4]; between 20% and 30% RH, equivalent to 1.0 moles of water): about 4.8%
pKa (basic) [5]: 8.64
pKa of second basic centre [5]: 0.81
Compound: 4-(2-fluorophenyl)-6-methyl-2-(piperazin-1-yl)thieno[2,3-d] pyrimidine hydrochloride [MCI-225]

Compound: Cc1cc2c(-c3ccccc3F)nc(N3CCNCC3)nc2s1 [MCI-225, 4-(2-fluorophenyl)-6-methyl-2-(piperazin-1-yl)thieno[2,3-d] pyrimidine hydrochloride]
Animals in which the visceromotor response to CRD was eliminated (rats [6]; 30 mg/kg i.p., acetic acid sensitized rats): 50 % of the animals
Latency (ferrets; 1 mg/kg i.p.): 186 ± 35 min
Retches (360 min) (ferrets; 1 mg/kg i.p.): 30.4 ± 9.1
Total Events (ferrets; 1 mg/kg i.p.): 32.9 ± 9.8
Vomits (360 min) (ferrets; 1 mg/kg i.p.): 2.5 ± 0.7
Latency (ferrets; 10 mg/kg i.p.): 192 ± 57 min
Retches (360 min) (ferrets; 10 mg/kg i.p.): 22.9 ± 10.3
Total Events (ferrets; 10 mg/kg i.p.): 25.5 ± 11.1
Vomits (360 min) (ferrets; 10 mg/kg i.p.): 2.6 ± 1.0
Latency (ferrets; [9]): 360 ± 0 min
Retches (360 min) (ferrets; [9]): 0.0 ± 0.0
Total Events (ferrets; [9]): 0.0 ± 0.0
Vomits (360 min) (ferrets; [9]): 0.0 ± 0.0
Latency (ferrets; 30 mg/kg i.p.): 287 ± 38 min
Retches (360 min) (ferrets; 30 mg/kg i.p.): 3.3 ± 2.2
Total Events (ferrets; 30 mg/kg i.p.): 4.0 ± 2.6
Vomits (360 min) (ferrets; 30 mg/kg i.p.): 0.7 ± 0.5
Small intestinal transit, Mean (% of total small intestinal length) (rats [7]; 3 mg/kg i.p.): 30.1%
Small intestinal transit, Mean (% of total small intestinal length) (rats [7]; 10 mg/kg i.p., hydrochloride): 4.2±2.6% and 4.2%
Small intestinal transit, Mean (% of total small intestinal length) (rats [7]; 30 mg/kg i.p.): 8.8%

Compound: CNCCC(Oc1ccccc1OC)c1ccccc1 (centres unmarked) [Nisoxetine]
Fecal pellets produced during WAS vs vehicle treated group (rats [8]; 10 and 30 mg/kg i.p.): significantly fewer fecal pellet produced
WAS-induced fecal pellet output in 1 hour (rats [8]): reduced by all doses
Behavior in the home cage during the experiments (rats [6]; 30 mg/kg i.p.): increased exploratory behavior
Visceromotor response (number of abdominal contractions) to colorectal distension vs vehicle (rats [6]): no significant effect
Animals with charcoal meal completely retained in the stomach (rats [7]; 30 mg/kg i.p.): 4 out of 5
Small intestinal transit (rats [7]; 30 mg/kg i.p.): almost completely inhibited the transit
Small intestinal transit (rats [7]; 3 or 10 mg/kg i.p.): tendency to decrease small intestinal transit

Compound: Cc1nccn1CC1CCc2c(c3ccccc3n2C)C1=O (centres unmarked) [Ondansetron]
WAS-induced fecal pellet output in 1 hour (rats [8]): dose-dependent inhibition
Visceromotor responses at moderate and high intraluminal pressure (rats [6]; 10 mg/kg i.p., 30 and 60 mmHg): did not abolish the responses
Behavioral activity of the rats (rats [6]; 1, 5 or 10 mg/kg i.p.): No significant changes in the behavioral activity
Visceromotor response (number of abdominal contractions) to colorectal distension vs vehicle (rats [6]): dose-dependent decrease in the number of abdominal contractions
Latency of the emetic response following cisplatin (ferrets; all doses tested i.p.): increase in the latency
Emetic events (retches and vomits) induced by cisplatin (ferrets; all doses tested i.p. (ondansetron 5, 10; MCI-225 1, 10, 30 mg/kg)): dose-dependently reduced the number of emetic events
Small intestinal transit vs vehicle (rats [7]; all doses tested i.p. (MCI-225 3, 10, 30; ondansetron 1, 5, 10 mg/kg)): significant reduction in small intestinal transit
